For five compounds, Rate results are on record in ChEMBL document CHEMBL1121596, “Metabolic beta-hydroxylation and N-oxidation of N'-nitrosonornicotine” (J Med Chem, 1980).

SMILES strings stand for the structures.

For this data set, the species on record is Rattus norvegicus. Briefly: Rate of formation of compound by F-344 rat liver microsomes. Type of data set: ADME. (In general: Microsomes from liver hold many membrane-bound enzymes, among them those of drug oxidation.)

`O=C(CCCO)c1cccnc1` yielded a Rate of 0.4 nmol/min/mg.
`O=NN1CCCC1c1ccc[n+]([O-])c1` (stereo not given): the Rate was 0.57 nmol/min/mg.
In the case of `O=NN1CCC(O)C1c1cccnc1` (stereo not given), the Rate is less than 0.01 nmol/min/mg.
The result for `O=NN1CC(O)CC1c1cccnc1` (stereo not given) reads less than 0.01 nmol/min/mg; that for `OC1CCC(c2cccnc2)O1` (stereo not given), 0.76 nmol/min/mg.
